Experiment in all cases: NCI anticancer screen, dose series, 48 h
Assay [1] deals with NCI-H23 lung.
Assay [2] has as its system OVCAR-8 ovarian.
The subject of assay [3] is NCI-H460 lung.
In assay [4] the test system is ACHN renal.
Assay [5] relates to EKVX NSCLC.
In assay [6] the test system is HOP-62 NSCLC.
In assay [7] the test system is LXFL 529 NSCLC.
Assay [8] has as its system HT29 colon.
For assay [9], the system named is SK-MEL-2 melanoma.
Assay [10] has as its system MOLT-4 leukemia.

From PubChem BioAssay (NCI) come the findings set out here.

Several values for one entry are separate records, joined by “and”; a condition that tells them apart may be missing. Identical values can stand only once.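 Method: 48-hour compound exposure of cells in 96-well plates, five concentrations, linear interpolation of endpoints. GI50 marks 50% less growth. TGI: total growth inhibition.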

Take `C/C(CC(=O)CCC(=O)Nc1cccc(C(F)(F)F)c1)=N\NC(=O)NN`: the TGI in assay [1], in [2], in assay [3], in [4], in [5] and in assay [6] was greater than 100 µM in each case. Moreover, the TGI in [7], in assay [8], in assay [9] and in assay [10] was greater than 100 µM throughout.
Regarding `CC1(c2ccc(F)cc2)C(C#N)C(=O)NC(=O)C1C#N` (stereo unspecified), the TGI in [1], in assay [2], in assay [3], in assay [4], in assay [5] and in assay [6] was greater than 100 µM each time. For the same compound, the TGI in assay [7], in [8], in assay [9] and in [10] was greater than 100 µM each time.
Turning to `Clc1cc2nsnc2c(Cl)n1`, the TGI in assay [1] was 39.9 µM; in [3], greater than 100 µM; in assay [4] it was greater than 100 µM; in assay [5] it was greater than 100 µM; in assay [6], greater than 100 µM; in assay [7] it was 27.8 µM. In addition, the values for the TGI in [8], in assay [9] and in assay [10] were 49.3 µM, 34 µM and 43.6 µM, respectively.
Turning to `COC(=O)[C@@H]1[C@H](O)[C@H](C)[C@H](O)[C@@](C)(O)/C=C\C=C(C)C(=O)Nc2c(C)c(OC(C)=O)c3c(c2O)C(=O)C(C)=C2OCOC(=C23)C(C)=C[C@@](C)(O)[C@H](O)[C@@H](C)[C@H]1OC(C)=O`, the TGI was > 100 µM and 66.9 µM and 47.8 µM in assay [1]; > 100 µM and 66.9 µM in assay [2]; greater than 100 µM in [3]; greater than 100 µM in [4]; greater than 100 µM in assay [5]; > 100 µM and 66.9 µM in [6]. The TGI was > 100 µM and 66.9 µM in [7]; > 100 µM and 66.9 µM in [8]; > 100 µM and 66.9 µM and 96.3 µM in assay [9]; greater than 100 µM in assay [10]. The GI50 is 42.3 µM in [2]; greater than 66.9 µM in assay [3]; greater than 66.9 µM in [4]; greater than 66.9 µM in assay [5]; 35.6 µM in [7].
For `N#CC(c1ccc(Cl)cc1)c1cccc(C(C#N)c2ccc(Cl)cc2)n1` (stereo unspecified), the TGI was 57 µM in assay [1]; greater than 100 µM in assay [2]; greater than 100 µM in [3]; greater than 100 µM in assay [4]; greater than 100 µM in assay [5]; greater than 100 µM in assay [6]. In addition, the TGI is greater than 100 µM in assay [7], greater than 100 µM in [8], 83.2 µM in assay [9] and greater than 100 µM in assay [10].
For the compound `O=C1C(=O)N(c2ccc(Cl)cc2Cl)C(=O)C(=O)C1c1nc2ccccc2s1`, the TGI in [1], in [2], in assay [3], in assay [4], in [5] and in assay [6] was greater than 100 µM each time. For the same compound, the TGI was greater than 100 µM in assay [7], greater than 100 µM in [8], greater than 100 µM in [9] and greater than 89.2 µM in assay [10].
On to `Cc1ccc(N=Nc2ccc(N(CCC#N)CCC#N)cc2C)c(Br)c1`, for which the TGI in [1] is greater than 100 µM; in assay [2], greater than 100 µM; in assay [4], greater than 100 µM; in assay [5] it was greater than 100 µM; in assay [6], 93 µM; in [7], greater than 100 µM. The TGI in assay [8] was 27.4 µM; in assay [9], greater than 100 µM; in assay [10], 45.1 µM.
Take `COC(=O)CC1CCN(C#N)CC1CC[N+](=O)[O-]` (stereo unspecified): the TGI in assay [2], in [3], in [4], in assay [6], in assay [7] and in assay [9] was greater than 100 µM in each case. Besides, the TGI in assay [10] is greater than 100 µM.
As to `CCCCCCCCCCCCCCCCCC(CCCCCCCCCCCCCCCCC)OP(=O)(O)O`, the TGI in assay [1], in [2], in assay [3], in assay [4], in assay [5] and in assay [7] was greater than 100 µM throughout. Further, the TGI in assay [8], in [9] and in assay [10] was greater than 100 µM throughout.
In the case of `CN(C)C(=N)c1ccccc1`, the TGI in assay [1], in assay [2], in assay [3], in [6], in assay [7] and in [8] was greater than 100 µM each time. For the same compound, the TGI in [9] was greater than 100 µM.
Turning to `Cc1coc2c1CC1(C)C(CCC(O)C1C)C2` (stereo unspecified), the TGI in assay [1], in assay [2], in [3], in assay [4], in [5] and in [6] was greater than 100 µM in each case. Besides, the TGI in assay [8], in assay [9] and in [10] was greater than 100 µM each time.
For `COc1ccc(C(=O)Cn2c(C(=O)c3ccccc3)nc(-c3ccc(OC)cc3)c2-c2ccc(OC)cc2)cc1`, the GI50 in assay [1] was greater than 100 µM; in assay [2] it was greater than 100 µM; in assay [3], greater than 100 µM; in [4], greater than 100 µM; in [5], greater than 100 µM; in assay [6] it was 74 µM. Further, the GI50 in [8] was greater than 100 µM; in assay [9], 66 µM; in [10], greater than 100 µM. Moreover, the TGI in assay [1], in assay [2], in [3], in assay [4], in assay [5] and in assay [6] was greater than 100 µM throughout. The TGI in [8], in assay [9] and in assay [10] was greater than 100 µM in each case.
Consider `O=C1CC(c2ccc3c(c2)OCO3)Nc2ccccc21` (stereo unspecified), for which the GI50 in [1] is 12.2 µM; in [2], 14.4 µM; in assay [3] it was 9.02 µM; in assay [4] it was 7.22 µM; in [5], 11.8 µM; in [6] it was 14.2 µM. The GI50 in [8] is 7.76 µM; in assay [9] it was 12.7 µM; in assay [10] it was 12.8 µM. In addition, the TGI in assay [1] is 32.7 µM; in assay [2], 63.3 µM; in [3] it was 33.7 µM; in assay [4], greater than 87.4 µM; in assay [5] it was 46.4 µM; in [6] it was 86 µM. The TGI in assay [8] was 33.1 µM; in assay [9], greater than 62.8 µM; in assay [10] it was 64.2 µM.
